Assay results as given in article PMC11509018, “Evaluation of the Role of Tanshinone I in an In Vitro System of Charcot-Marie-Tooth Disease Type 2N” (International Journal of Molecular Sciences, 2024).

Target: T1, AlaRS G102R binding to GST-Nrp1 b1 (Homo sapiens, UniProt P49588, G102R)
T1 construct: made in house; host or cells: E. coli BL21 (DE3), pET-21a for AlaRS
T1 sequence (P49588 1-968 G102R): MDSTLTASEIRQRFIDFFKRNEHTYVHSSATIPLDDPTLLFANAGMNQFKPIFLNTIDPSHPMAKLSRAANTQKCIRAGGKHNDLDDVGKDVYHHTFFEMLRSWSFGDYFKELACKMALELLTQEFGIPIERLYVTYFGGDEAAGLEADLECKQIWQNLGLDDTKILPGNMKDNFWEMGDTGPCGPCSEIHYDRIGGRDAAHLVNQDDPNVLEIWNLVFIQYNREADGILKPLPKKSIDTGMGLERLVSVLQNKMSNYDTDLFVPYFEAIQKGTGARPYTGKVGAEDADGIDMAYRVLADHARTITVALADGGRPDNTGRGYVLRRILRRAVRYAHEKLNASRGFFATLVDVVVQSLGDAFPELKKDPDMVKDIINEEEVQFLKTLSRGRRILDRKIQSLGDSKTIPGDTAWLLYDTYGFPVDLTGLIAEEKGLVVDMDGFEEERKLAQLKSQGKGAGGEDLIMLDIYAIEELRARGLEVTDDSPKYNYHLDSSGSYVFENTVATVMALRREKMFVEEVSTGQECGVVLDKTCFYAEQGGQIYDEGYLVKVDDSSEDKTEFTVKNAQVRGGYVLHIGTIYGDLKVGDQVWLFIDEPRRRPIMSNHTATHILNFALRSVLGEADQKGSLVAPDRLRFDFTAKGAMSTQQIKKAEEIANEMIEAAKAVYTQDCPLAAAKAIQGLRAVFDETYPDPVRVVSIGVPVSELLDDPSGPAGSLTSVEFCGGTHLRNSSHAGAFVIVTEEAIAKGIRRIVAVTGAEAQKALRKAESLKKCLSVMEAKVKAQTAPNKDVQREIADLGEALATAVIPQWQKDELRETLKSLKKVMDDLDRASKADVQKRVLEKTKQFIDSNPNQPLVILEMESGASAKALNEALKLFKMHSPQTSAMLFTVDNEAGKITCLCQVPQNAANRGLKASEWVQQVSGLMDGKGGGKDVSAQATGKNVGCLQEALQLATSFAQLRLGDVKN
Assay: GST pull down assay
Details: 20 µM Tanshinone I, ImageJ, average of three repeats
Procedure: To further investigate whether Tanshinone I-induced conformational changes in AlaRS CMT mutants affect their interaction with Nrp1, Co-IP experiments were performed in cells treated with Tanshinone I. By comparing Co-IP results obtained before and after treatment, we assessed the influence of the drug on the binding strength and mode between the AlaRS CMT mutants and Nrp1. […] To confirm the direct effect of Tanshinone I on the interaction between AlaRS CMT mutants and Nrp1, pull-down experiments were performed. […] Given that the interaction between AlaRS mutants and Nrp1 is associated with disease progression in CMT, the ability of Tanshinone I to disrupt this binding highlights its potential to intervene in the pathogenic mechanisms of these diseases.
Figure 7 The impact of Tanshinone I on the interaction between AlaRS mutants and Nrp1. (A) Co-IP assays were conducted to assess the binding between HA-AlaRS mutants and Nrp1, both with and without treatment with 20 µM Tanshinone I for 24 h. […] (C) Pull down assay was performed to detect the binding between AlaRS mutants and GST-Nrp1 b1 with or without 20 µM Tanshinone I. (D) Relative quantification statistics of the AlaRS mutants pulled down from the GST pull down experiments after Tanshinone I treatment were performed using ImageJ. (E) The cell viability of 293T and NSC34 cells treated with different concentrations of Tanshinone I was assessed using the CCK-8 assay over a 24 h period. TEXT PRINTED IN THE PICTURE: (B) Tanshinone I: Mean density band (N71Y): 0.60; Mean density band (G102R): 0.53; Mean density band (R326W): 0.50; Mean density band (R329H): 0.50; Mean density band (E337K): 0.62 | (D) Tanshinone I: Mean density band (N71Y): 0.82; Mean density band (G102R): 0.76; Mean density band (R326W): 0.84; Mean density band (R329H): 0.84; Mean density band (E337K): 0.90
To detect the direct interactions between the mutant proteins and Nrp1 in vitro, we performed a Glutathione S-transferase (GST) pull-down assay. AlaRS mutants fused with 6 × His were purified with Ni-NTA beads, followed by chromatography on a HiTrap Q HP column. Nrp1 b1 fragments fused with GST were purified with Glutathione Beads (#SA008100, Smart-Lifesciences, Changzhou, China). For GST pull-down assays, 1000 μg of each GST-fused Nrp1 b1 fragment was mixed with 200 μg of 6 × His-tagged fusion protein in binding buffer (50 mM Tris-HCl pH 7.5, 20 mM NaCl, 5% glycerol, 5 mM DTT with 0.1% BSA) at 4 °C overnight. The mixture was next incubated with 30 μL glutathione beads at 4 °C with constant rotation for 2–4 h. Subsequently, the bead/protein complex was washed three times, and eluted with 30 μL 2 × SDS sample buffer. The samples were then subjected to SDS-PAGE analysis. The experiment was repeated three times.

Mean density band (G102R), relative quantification of AlaRS mutant pulled down: 0.76
SMILES: Cc1coc2c1C(=O)C(=O)c1c-2ccc2c(C)cccc12 [Tanshinone I]
